Data: patent publication US8093234B2, “Method of increasing thymic output in HIV-negative patients by treatment with antiretroviral agents” (Mayo Foundation For Medical Education and Research, priority 2005, dated 2012)
Values joined by “and” are separate entries in the source; they are usually repeats but may differ in a detail not shown here. Equal entries are not always repeated. “Also recorded” adds a separate entry of the source.

Legend:
Kaposi's sarcoma = details: mice implanted with Kaposi's sarcoma; cited from earlier work
[1] = test system: adult T-cell leukemia cells; details: NOD/SCID mice implanted with adult T-cell leukemia cells; cited from earlier work
[2] = test system: thymic derived naïve T-cell numbers in the peripheral blood; test: TREC analysis (sjTREC/CCR5 real-time PCR) of peripheral blood in HIV-negative volunteers on nelfinavir mono-therapy; format: in vivo, human
Method: (§1) Following approval by the Mayo Institutional Review Board, peripheral blood was sampled from 46 healthy blood donors older than 18 years of age for baseline TREC analysis. For the separate nelfinavir trial, 15 HIV-negative individuals with no active illness older than 18 years of age were given nelfinavir, 1250 mg orally, twice a day for 21 days. Blood for TREC analysis was obtained before therapy and on days 3, 5, 7, 14, and 21 after starting therapy. At each blood draw, side-effects were monitored and recorded from each subject. Severity of diarrhea was graded as: Grade 0—None; Grade 1—increase of 4 stools/day over pretreatment; Grade 2—increase of 4-6 stools/day, or nocturnal stools; Grade 3—increase of 7 stools/day or incontinence, or dehydration episode requiring parenteral support; Grade 4—episode of hemodynamic collapse requiring intensive care.
TREC Analysis: DNA was isolated from peripheral blood mononuclear cells (PBMC) using an QIAamp Blood Mini DNA Kit (Qiagen) and assessed for signal joint (sj) TREC content relative to genomic CCR5 copies by real-time PCR in a spectroflourometric thermal cycler (ABI PRISM 7700 or 7900, PE Applied Biosystems). SjTREC reactions contained 12.5 pmol primers (forward […] [SEQ ID NO:1]), reverse […] [SEQ ID NO:2]) 3 pmoles TAQMAN probe (FAM-[…]-TAMRA [SEQ ID NO:3]), 1× TAQMAN Universal PCR Master Mix (PE Applied Biosystems), and 50 to 400 ng of template DNA in a total volume of 25 μl. CCR5 reactions contained 12.5 pmol primers (forward […] [SEQ ID NO:4], and reverse […] [SEQ ID NO:5]), 3 pmoles TAQMAN probe (FAM-[…]-TAMRA [SEQ ID NO:6]),1× TAQMAN Universal PCR Master Mix, and 50-400 ng of template of genomic DNA in a total volume of 25 μl. Thermal cycling conditions consisted of a 2-minute incubation at 50° C. and an initial denaturation/activation step at 95° C. for 10 minutes, followed by 40 cycles of 95° C. for 15 seconds and 60° C. for 1 minute in a microplate format. For each plate of reactions, standard curves were generated with 1-100,000 copies of human sjTREC plasmid (provided by Dr. D. Douek, NIH) and human CCR5 plasmid (cloned by RT-PCR into pCI) in order to calculate copies of TREC versus CCR5.
Statistical analysis: Experiments from every figure were performed in duplicate and repeated at least twice. All measurements are presented as means and standard deviations with statistical comparisons made between baseline and day 21 TREC/CCR5 measurements using the Student's t test for paired observations. For FIG. 2, change in baseline to day 21 TREC/CCR5 levels were stratified according to subjects age with 2 subjects <40, 2 subjects 40-65, and 11 subjects >65 years old.

[3] = Side-effect monitoring in the nelfinavir trial in HIV-negative individuals; format: in vivo, human
Method: as §1

SMILES	tumor response (Kaposi's sarcoma)	tumor growth [1]	volunteers who did not increase TREC numbers following 21 days ([2]; 15 subjects, 21 days)	volunteers who responded with increases in TREC numbers from baseline to day 21 ([2]; 15 subjects, 21 days)	effect on TREC levels / TREC positive naïve T-cell number ([2]; HIV-negative adults, mono-therapy for 21 days)	median increase in TRECs from baseline to day 21 in responders ([2]; eight responding volunteers, p<0.02) [copies TREC/CCR5]	change between baseline and day 21 TREC/CCR5 levels ([2]; entire cohort analyzed)	Day 21/0 TREC ([2]; individual subjects 1-15, nelfinavir 1250 mg orally twice a day for 21 days)	patients in whom TREC copies/copies CCR5 increased ([2]; of 15 subjects, p<0.02) [patients]	patients in whom TREC copies/copies CCR5 did not change ([2]; of 15 subjects, p=NS) [patients]	change in TREC levels between baseline (day 0) and days 3, 5, 7 or 14 ([2]; paired analysis)	average increase in TREC levels ([2]; subjects 40-65 years) [TREC/CCR5 copies]	average change in TREC levels ([2]; subjects greater than 65 years) [TREC/CCR5 copies]	average increase in TREC levels ([2]; subjects less than 40 years) [TREC/CCR5 copies]	clinical tolerability ([3]; 1250 mg orally twice a day for 21 days)	subjects who completed the 21 days of therapy ([3]; 15 subjects)	subjects who experienced Grade 1 or 2 diarrhea ([3]; six of 15 subjects) [%]
CC(C)c1nc(CN(C)C(=O)N[C@H](C(=O)N[C@@H](Cc2ccccc2)C[C@H](O)[C@H](Cc2ccccc2)NC(=O)OCc2cncs2)C(C)C)cs1 [Ritonavir]	significant tumor regression	reduced tumor growth	–	–	–	–	–	–	–	–	–	–	–	–	–	–	–
Cc1c(O)cccc1C(=O)N[C@@H](CSc1ccccc1)[C@H](O)CN1C[C@H]2CCCC[C@H]2C[C@H]1C(=O)NC(C)(C)C [nelfinavir]	–	–	47 % of total	53 % of total	induces an increase in TREC levels in a subset of healthy adults; also recorded: increases TREC positive naïve T-cell number	1.2	no change	0.74 and 1.18 and 0.24 and 1.25 and 1.01 and 0.72 and 1.0 and 1.36 and 1.06 and 2.32 and 1.88 and 0.59 and 0.29 and 0.38 and 0.55	8	7	No significant change	0.80	0.89	1.2	clinically well tolerated	all but one subject	40
